# Reference: US11123320B2, “Prophylactic or therapeutic agent for hyperaciive bladder” (SBI PHARMACEUTICALS CO., LTD., priority 2017, dated 2021)
# Key:
# NGF = NGF ELISA in rat bladder tissue; assay type: in vivo; settings: male SHR, oral ALA with sodium ferrous citrate as in Example 1, vs control group
# Procedure: ALA administration to a subject and the change in the amount of NGF expression was investigated. Since micturition reflex is enhanced when NGF increases in the bladder thus resulting in overactive bladder, NGF is employed as a lower urinary tract dysfunction marker.
# (§1) Preparation of the experimental and control groups was carried out with the method and conditions similar to the method described in Example 1.
# (§2) The bladder tissue of experimental and control groups were processed with the procedure below, and used as samples.
# 1. Wash 100 mg of tissue with 1×PBS.
# 2. Homogenize with 1 ml of 1×PBS.
# (§3) 3. Store overnight at −20° C.
# (§4) 4. Carry out freeze-thawing to destroy cell membrane, and centrifuge at 5000 G for 5 min at 4° C.
# (§5) 5. Dispense and store at −20° C. or −80° C.
# (§6) 6. After thawing, centrifuge again and employ for assay.
# ELISA assay was performed with Rat NGF ELISA kit (CUSABIO CSB-E24685r) according to the protocol provided by the manufacturer.
# [1] = tested on: detrusor muscle / bladder of SHR rats; assay: Cystometry (overactive status of the detrusor muscle); assay type: in vivo, rat; settings: 18 weeks old male SHR under urethane anesthesia, after 6 weeks oral ALA 10 or 100 mg/kg with sodium ferrous citrate; vs group without ALA
# Procedure: Note that cystometry verifies the overactive status of the detrusor muscle, and is established as a method for examining overactive bladder. (1) 18 weeks old male SHR/Hos rats and Wistar/ST rat are subjected to general anesthesia by urethane (1.0 g/kg, i.p.). (2) Each rat is laid down and the extremities are fixed with packaging tape. Laparotomy is then performed, and the bladder is pressed to allow urination. Absorbent cotton with saline is placed on top to prevent drying and left for 30 minutes. (3) A catheter for cystometry is inserted into the bladder of each rat. Here, the catheter is joined to a three-way stopcock, and one end is connected to a syringe pump to continuously infuse saline into the bladder at a constant speed (12 ml/hr). The other end is connected to a pressure transducer to monitor and amplify with a pressure amplifier, and incorporated into a personal computer via Powerlab system for recording. (4) Saline is then infused and left for about 30 minutes until stable. (5) Watch the wave form to collect single urine into a 1.5 ml tube, and the weight of urine is measured. (6) Residual urine of each rat is collected and the amount is measured. (7) Peaks at similar interval and height are consecutively taken 6 times (about 1 hour).
# VEGF = VEGF ELISA in rat bladder tissue; assay type: in vivo; settings: male SHR, oral ALA with sodium ferrous citrate as in Example 1, vs control group
# Procedure: ALA administration to a subject and the change in the amount of VEGF expression was investigated. VEGF is a vascular endothelial growth factor, and is used as a marker of bladder vascular endothelial dysfunction.
# as §1, §2
# 1. Wash 100 mg of tissue with 1×[…].
# 2. Homogenize with 500 μl of 1×PBS.
# as §3, §4, §5, §6
# ELISA assay was performed with Rat VEGF ELISA kit (CUSABIO CSB-E04757r) according to the protocol provided by the manufacturer.
# [2] = tested on: bladder blood flow of SHR rats; assay: Bladder blood flow measurement (hydrogen clearance method); assay type: in vivo, rat; settings: male SHR after 6 weeks oral ALA 10 or 100 mg/kg with sodium ferrous citrate, vs control
# Procedure: After said cystometry, bladder blood flow measurement (hydrogen clearance method) was performed according to the procedures below. (1) A silver chloride plate which is an indifferent electrode is buried under the precordium of each rat. (2) Wire platinum electrodes are incised into the bladder wall (three places in the bladder wall, data is collected 3 times each). (3) Blood flow is measured using UH-METER. Specifically, a hydrogen tank is opened to 0.3 L/min, and 100% hydrogen is directly inhaled with a funnel. Hydrogen is given until peaked, and hydrogen clearance curve is measured with the PowerLab system. The timepoint when the hydrogen clearance curve begins to drop is set at 0 second, and recording was performed for about 180 seconds. (4) The blood flow amount was calculated from the regression curve. * Half-life (T½) is determined from the regression curve Y=B−AX.
# MDA (Malondialdehyde) = assay: MDA assay in rat bladder tissue; assay type: in vivo; settings: male SHR, oral ALA with sodium ferrous citrate as in Example 1; vs control group
# Procedure: ALA administration to a subject and the change in the amount of MDA expression was investigated. MDA is one of lipid peroxidative degradation products, and is known as a major marker of lipid peroxidation.
# as §1, §2
# 1. Subject to biomasher with 400 μl of cold assay buffer.
# 2. Centrifuge at 15000 rpm for 5 min at 4° C. After centrifugation, add 300 μl of buffer to the supernatant and store on ice.
# 3. Correct with protein concentration.
# ELISA assay was performed with Malondialdehyde Assay kit (NWK-MDA01) according to the protocol provided by the manufacturer.
# [3] = tested on: overactive bladder model rats (SHR); assay: Urination kinetics measurement with a metabolic cage; assay type: in vivo, rat; settings: male SHR, vs saline control
# Procedure: Twelve weeks old male SHR (spontaneously hypertension rata) were employed as experimental rats, and the experimental groups were divided into groups I-III by ALA administration conditions below. For experimental group II, ALA and sodium ferrous citrate were orally administered on experiment start day. The dosage of ALA was set at 10 mg/kg of body weight and sodium ferrous citrate was set at 15.7 mg/kg of body weight. On the other hand, for experimental group III, ALA was set at 100 mg/kg of body weight and sodium ferrous citrate was set at 157 mg/kg of body weight. Note that for control group I, saline only at an amount equal to ALA was administered instead of ALA and sodium ferrous citrate.
# For control group I, saline was orally administered every day from experiment start day (12 weeks old) to week 6 (18 weeks old).
# For experimental groups II and III, ALA and sodium ferrous citrate was orally administered every day from experiment start day (12 weeks old) to week 6 (18 weeks old).
# For each experimental group, urination kinetics measurement with a metabolic cage was performed. Specifically, measurements were performed at 12 weeks old (before ALA administration) and at 18 weeks old (after ALA administration) to measure single urination amount, 24-hour urination amount, and water drinking amount. Here, the method based on Yono et al., Life Sci. 2007 Jun. 27; 81(3):218-222 (non-anesthetized, unrestrained, and day-and-night continuous measurement method of mouse urination function) was adopted as the measurement method with a metabolic cage. Note that before measurement of urination kinetics, body weight, blood pressure, and heart rate were measured as a caution in addition to the urination amount and water drinking amount. Moreover, when measuring urination kinetics, total number of urination was also measured.
# Nrf2 = Nrf2 ELISA in rat bladder tissue; assay type: in vivo; settings: male SHR, oral ALA with sodium ferrous citrate as in Example 1, vs control group
# Procedure: ALA administration to a subject and the change in the amount of Nrf2 expression was investigated. Nrf2 is one of transcription factors that regulate the expression of antioxidant enzymes or detoxication metabolism enzymes to control oxidative stress, and is employed as an oxidative stress marker.
# as §1, §2
# 1. Wash excess blood with PBS.
# 3. Place 600 μl of PBS on ice in a biomasher to finely mince tissue.
# 4. Perform ultrasonic wave treatment or freeze-thawing (−20° C./room temperature) 3 times.
# 5. Centrifuge at 5000 G for 5 minutes.
# 6. Move the supernatant to a new tube (measure protein concentration).
# ELISA assay was performed with Rat NFE2L2/NRF2 ELISA kit (LSBio LS-F12145) according to the protocol provided by the manufacturer.
# [4] = ALA 10 or 100 mg/kg with sodium ferrous citrate orally every day for 6 weeks
structure (smiles),measurement,setting,value
"NCC(=O)CCC(=O)O [ALA, 5-aminolevulinic acid]",amount of NGF expression in bladder tissue,NGF,significantly reduced
same,urination interval (cystometry),[1],extension of urination interval
same,amount of VEGF expression in bladder tissue,VEGF,significantly reduced
same,bladder blood flow amount,[2],tendency of bladder blood flow to increase ALA dosage-dependently
same,amount of MDA expression in bladder tissue,MDA (Malondialdehyde),significantly reduced
same,increase in single urination amount compared to the control group,"[3]; ALA 10 or 100 mg/kg with sodium ferrous citrate 15.7 or 157 mg/kg orally every day for 6 weeks, measured at 18 weeks old",approximately 30%
same,24-hour urination amount compared to the control group,[3]; [4],increase in 24-hour urination amount
same,24-hour water drinking amount,[3]; [4],increase in water drinking amount
same,amount of Nrf2 expression in bladder tissue,Nrf2,significantly reduced
